Patent US9492368B2, “External preparation for skin” (HAYASHIBARA CO., LTD., priority 2011, dated 2016)
Where two headings read alike, the source gives them in different places. Marks after values point to notes of the source that are not given here.

Legend:
[1] = target: T1, adenosine deaminase (ADA) (Homo sapiens, UniProt P00813); conditions: 0.5 mM, pH 7.5
T1 sequence (P00813 1-363): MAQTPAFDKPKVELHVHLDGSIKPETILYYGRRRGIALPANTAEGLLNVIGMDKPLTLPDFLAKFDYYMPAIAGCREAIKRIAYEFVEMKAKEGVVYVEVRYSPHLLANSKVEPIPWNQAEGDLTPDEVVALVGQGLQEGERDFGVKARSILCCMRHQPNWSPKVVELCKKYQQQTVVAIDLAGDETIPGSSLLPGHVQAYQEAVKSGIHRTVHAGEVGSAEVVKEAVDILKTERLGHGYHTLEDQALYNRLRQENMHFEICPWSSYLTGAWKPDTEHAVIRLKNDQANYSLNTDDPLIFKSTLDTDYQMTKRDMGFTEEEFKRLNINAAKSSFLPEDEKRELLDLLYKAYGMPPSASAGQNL
Procedure: Adenosine has been confirmed to be promptly hydrolyzed into inosine and hypoxanthine by adenosine deaminase (ADA) intrinsically present in living bodies. To examine the possibility of sustainably exerting effects by glucosyladenosines as adenosine glycosides, a test for confirming whether 5′- and 3′-glucosyladenosines are hydrolyzed in living bodies was conducted using a cell lysate of a normal human fetal fibroblast as a source for an adenosine metabolism-relatedenzyme. “NHDF cells”, a normal human fetal fibroblast, commercialized by Kurabo Industries, Osaka, Japan (called “NHDF cells”, hereinafter), which had been diluted with “Dulbecco's Modified Eagle Medium “Nissui” (abbreviated as […], hereinafter), a product name of a Dulbecco's Medium Essential Medium, commercialized by Nissui Pharmaceutical Co., Ltd., Tokyo, Japan, containing 10 v/v % fetal calf serum […] (called “FCS”, hereinafter) was inoculated to 150 cm^2 culture flasks (commercialized by Corning, N.Y., USA) in a cell amount of 1.5×10^6 cells/20 ml/flask, and cultured for four days. After removing each culture supernatant, the resulting cells were treated with “Trypsin-EDTA”, a product name of 0.05% by mass of trypsin/EDTA solution, commercialized by Gibco, NY., USA, followed by collecting the cell suspensions from each flask. […] CELL DISROPTOR 185” thrice (30 sec×twice for each) for cell disruption, centrifuged at 15,000 rpm for five minutes to collect supernatants as a cell lysate. 0.9 ml of the cell lysate and 0.1 ml of phosphate buffered saline (PBS), which had been prepared by dissolving either the 5′-glucosyladenosine that had had been prepared in Experiment 1-2 or the 3′-glucosyladenosine that had had been prepared in Experiment 2 to give a concentration of 5 mM, were mixed, stirred, and allowed to react at 37° C. Reaction solutions at reaction times 0, 1, 7 and 24 hours after initiating the reaction were collected, treated with the same method as in Experiment 3, and quantified for adenosine and glucosyladenosines by an HPLC method. Relative values for concentrations of these compounds at respective reaction times were calculated when the concentration at the reaction initiation for each compound was regarded as 100%, and they are shown in Table 3 as residual percentages of adenosine or glucosyladenosines.

[2] = test system: sphingomyelinase (SMase); test: Real-time PCR gene expression in NHEK cells: sphingomyelinase; type: cell-based, human; conditions: 1 μM, seven days, relative to control = 1.00
Procedure: Since glucosyladenosines were confirmed in Experiment 5 to have an action of enhancing the differentiation of keratinocytes effective for skin improvement, a test for examining the change of the expression level of a molecular marker gene of keratinocytes, as an index, was performed as follows using a real-time PCR analysis method to examine the above action in more detail. The expression level of a ceramide-synthesis-related gene was also studied to examine the influence of glucosyladenosines on ceramide synthesis that had been known to have an important role in moisturizing the skin and barrier function of the skin and deemed to be effective for skin improvement. As genes for analysis, profilaggrin (PFG: a later differentiation marker) and involucrin (INV: an early differentiation marker) as differentiation markers of keratinocytes and β-glucocerebrosidase (GCase) and sphingomyelinase (SMase) as ceramide-synthesis-related enzymes were selected, and a gene for cyclophilin B (CypB) as an internal standard upon practicing PCR reaction was used (see FIG. 7). NHEK cells were inoculated to 6-well plate coated with collagen in an amount of 8×10^4 cells/1.5 ml/well, cultured with EpiLife medium, and cultured at 37° C. for two days under a 5 v/v % CO2 condition. Thereafter, the culture medium was removed, and the resulting cells were added with a fresh EpiLife medium containing 5′-glucosyladenosine, 3′-glucosyladenosine, or adenosine in a volume of 1.5 ml/well (giving a final concentration of 1 μM of any one of glucosyladenosines and adenosine), and cultured for seven days while replacing the medium with a fresh one containing any one of glucosyladenosines and adenosine in a volume of 1.5 ml/well every other day. After completion of the culture, each well was washed twice with PBS(K−), followed by adding 0.2 ml/well of 0.025% by mass of trypsin/EDTA solution to the resulting cells and allowing the cells to stand at an ambient temperature for five minutes to detach them from the plates. […]

Nc1ncnc2c1ncn2[C@@H]1O[C@H](CO)[C@@H](O[C@H]2O[C@H](CO)[C@@H](O)[C@H](O)[C@H]2O)[C@H]1O [3′-Glucosyladenosine, α-D-glucopyranosyl-(1→3′)-adenosine]
Remaining percentage ([1]; 0 h): 100% | Remaining percentage ([1]; 1 h): 95% | Remaining percentage ([1]; 7 h): 86% | Remaining percentage ([1]; 24 h): 17% | Gene expression level SMase [2]: 2.03*

Nc1ncnc2c1ncn2[C@@H]1O[C@H](CO[C@H]2O[C@H](CO)[C@@H](O)[C@H](O)[C@H]2O)[C@@H](O)[C@H]1O [5′-Glucosyladenosine, α-D-glucopyranosyl-(1→5′)-adenosine]
Remaining percentage ([1]; 0 h): 100% | Remaining percentage ([1]; 1 h): 101% | Remaining percentage ([1]; 7 h): 100% | Remaining percentage ([1]; 24 h): 96% | Gene expression level SMase [2]: 2.57**

Nc1ncnc2c1ncn2[C@@H]1O[C@H](CO)[C@@H](O)[C@H]1O [Adenosine, reference compound]
Remaining percentage ([1]; 0 h): 100% | Remaining percentage ([1]; 1 h): 53% | Remaining percentage ([1]; 7 h): 0% | Remaining percentage ([1]; 24 h): 0% | Gene expression level SMase [2]: 1.35
